Patent publication US11345711B2, “8,9-dihydroimidazo[1,2-a]pyrimido[5,4-e]pyrimidin-5(6H)-ones” (IMPACT THERAPEUTICS (SHANGHAI), INC, priority 2016, dated 2022)
Like-named read-outs stand apart in the source and are kept apart here.

Tests used:
[1] = target: Wee1 (h) (Homo sapiens, UniProt P30291); assay: Wee1 kinase (h) detection method, [γ-33P]-ATP filter assay; type: biochemical
Experimental: Determination of the inhibitory effect of 6-(2-chlorophenyl)-2-((4-(4-methylpiperazin-1-yl)phenyl)amino)-8,9-dihydroimidazo[1,2-a]pyrimido[5,4-e]pyrimidin-5(6H)-one and Analogs on the Enzyme Activity of Wee1 Kinase by Using the Wee1 Kinase (h) Detection Method
Then the stock solution of all compounds under test with 50× concentration in 100% DMSO was added to make the final concentration of 10/1/0.1/0.01 μM, and then mixed the mixture well. The reaction is initiated by the addition of the Mg/ATP mix. After incubation for 40 minutes at room temperature, the reaction is stopped by the addition of phosphoric acid to a concentration of 0.5%. […] Each compound sample is duplicated in duplicate. The negative control was lack of all the components of Wee1 enzyme, and the positive was addition of 30% phosphoric acid to terminate the reaction. The Wee1 inhibitor AZD1775 was detected at 10 μM at the same experiment condition.

[2] = tested on: LoVo cells; assay: MTT based cell viability assay on LoVo cells; conditions: Homo sapiens, LoVo, 72 h, 3 d, read-out: IC50, growth inhibition of LoVo cells
Experimental: Determination of the cell growth inhibiting activity of 6-(2-chlorophenyl)-2-((4-(4-methylpiperazin-1-yl)phenyl)amino)-8,9-dihydroimidazo[1,2-a]pyrimido[5,4-e]pyrimidin-5(6H)-one and analogs on LoVo cells using a MTT based cell viability assay
(§1) The thawed LoVo cells were cultured and passaged to the third generation, and the growth state was good and the confluence was about 90%, which began to be used in the experiment. The LoVo cells were digested with trypsin, centrifuged at 800 rpm for 5 min, the supernatant was discarded, resuspended with fresh culture medium, and counted. 6000 Cells are seeded to each well of a 96-well plate. The cells are incubated at 37° C. in a 5% CO2 cell culture incubator overnight. The tested sample (including the tested compound and the reference compound AZD1775) was diluted continuously to 8 concentrations (the last concentration was negative control of DMSO) with a 1:3 and 1:10 dilution in DMSO respectively: 10 μM, 3.3 μM, 1 μM, 0.33 μM, 0.1 μM, 0.033 μM, 0.01 μM, 0 μM (the final concentration of DMSO was 1%). 5 μL of each concentration was added to 120 μL of culture medium (25 times diluted), and the mixture was shaken well. The overnight cells were taken and the culture medium was removed, 195 μL of fresh culture medium was added to each well, and 5 μL of diluted culture medium containing the corresponding concentration of the tested sample was added respectively, and the culture plate was then placed in the 5% CO2 cell culture incubator at 37° C. for 3 d. After removing the original solution and adding 100 μL of fresh serum-free DMEM culture medium containing MTT (0.5 mg/mL) per well, the culture was continued. The original solution was removed after 4 hrs and 100 μl DMSO was added to each well. The 96-well cell culture plates were shaken away from light for 10 min and readed in a multifunctional reader at 552/630/690 nm to give absorption values (OD values). The data were analyzed using a commercial graphic software (Graph Pad Prism 5.0) and the inhibitory activity of the compound on cell proliferation was plotted in terms of cell survival and compound concentration. The IC50 values were fitted by the S-shaped dose-response curve equation as follows: Y=100/(1+10^(Log C-Log IC50)), where C was the concentration of testing compounds.

[3] = tested on: NCI-H1299 cells; assay: MTT based cell viability assay on NCI-H1299 cells; conditions: Homo sapiens, read-out: IC50, growth inhibition of NCI-H1299 cells
Experimental: Determination of the cell growth inhibiting activity of 6-(2-chlorophenyl)-2-((4-(4-methylpiperazin-1-yl)phenyl)amino)-8,9-dihydroimidazo[1,2-a]pyrimido[5,4-e]pyrimidin-5(6H)-one and analogs on NCI-H1299 cells using a MTT based cell viability assay
as §1, with “NCI-H1299” for “LoVo”, “group,” for “medium,”, “1000” for “6000”, “1‰).” for “1%).”, “C−Log” for “C-Log”

Chain of Wee1 (h) (P30291 whole entry): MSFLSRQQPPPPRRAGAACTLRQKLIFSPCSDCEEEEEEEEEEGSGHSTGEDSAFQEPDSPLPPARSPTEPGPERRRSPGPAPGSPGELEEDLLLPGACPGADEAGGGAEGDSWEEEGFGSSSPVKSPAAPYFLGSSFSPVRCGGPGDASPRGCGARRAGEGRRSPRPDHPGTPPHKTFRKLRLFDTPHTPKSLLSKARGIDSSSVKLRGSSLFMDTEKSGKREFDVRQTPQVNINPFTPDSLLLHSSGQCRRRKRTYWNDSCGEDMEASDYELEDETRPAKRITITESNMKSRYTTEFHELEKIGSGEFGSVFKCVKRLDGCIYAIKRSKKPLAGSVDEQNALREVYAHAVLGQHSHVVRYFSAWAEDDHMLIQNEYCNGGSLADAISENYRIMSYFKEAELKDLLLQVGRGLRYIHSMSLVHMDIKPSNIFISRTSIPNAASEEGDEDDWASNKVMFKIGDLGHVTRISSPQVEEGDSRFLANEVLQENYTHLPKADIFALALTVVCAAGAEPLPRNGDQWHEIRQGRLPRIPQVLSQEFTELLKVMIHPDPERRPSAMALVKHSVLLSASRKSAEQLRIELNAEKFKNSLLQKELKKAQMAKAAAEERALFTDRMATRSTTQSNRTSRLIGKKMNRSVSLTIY

SMILES | Inh. (%) of Wee1 kinase enzyme activity ([1]; C 1 μm compound) [%] | IC50 [2] [nM] | IC50 ([3]; NCI-H1299 cells) [nM] | Inh. (%) of Wee1 kinase enzyme activity ([1]; C 0.01 μm compound) [%] | Inh. (%) of Wee1 kinase enzyme activity ([1]; C 0.1 μm compound) [%] | IC50 ([3]; NCI-H1299, NCI-H1299 cells) [nM]
CN1CCN(c2ccc(Nc3ncc4c(n3)N3CCN=C3N(c3c(F)cccc3Cl)C4=O)c(F)c2)CC1 [Example 36, 6-(2-Chloro-6-fluorophenyl)-2-((2-fluoro-4-(4-methylpiperazin-1-yl)phenyl)amino)-8,9-dihydroimidazo[1,2-a]pyrimido[5,4-e]pyrimidin-5(6H)-one] | 0 | > 100000 | > 10000 |  |  | 
CC(C)N1CCN(c2ccc(Nc3ncc4c(n3)N3CCN=C3N(c3c(Cl)cccc3Cl)C4=O)cc2)CC1 [Example 63, 6-(2,6-Dichlorophenyl)-2-((4-(4-isopropylpiperazin-1-yl)phenyl)amino)-8,9-dihydroimidazo[1,2-a]pyrimido[5,4-e]pyrimidin-5(6H)-one] | 99 | 76.8 | 360 | 17 | 76 | 
CN1CCN(c2ccc(Nc3ncc4c(n3)N3CCN=C3N(c3ccncc3)C4=O)cc2)CC1 [Example 99, 6-(Pyridin-4-yl)-2-((4-(4-methylpiperazin-1-yl)phenyl)amino)-8,9-dihydroimidazo[1,2-a]pyrimido[5,4-e]pyrimidin-5(6H)-one] | 8 | > 100000 | > 10000 |  |  | 
CN1CCN(c2cnc(Nc3ncc4c(n3)N3CCN=C3N(c3c(F)cccc3Cl)C4=O)cn2)CC1 [Example 121, 6-(2-Chloro-6-fluorophenyl)-2-((5-(4-methylpiperazin-1-yl)pyrazin-2-yl)amino)-8,9-dihydroimidazo[1,2-a]pyrimido[5,4-e]pyrimidin-5(6H)-one] | 15 | > 100000 | > 10000 |  |  | 
CN1CCN(c2ccc(Nc3ncc4c(n3)N3CCN=C3N(c3ccc(Cl)cc3)C4=O)cc2)CC1 [Example 85, 6-(4-Chlorophenyl)-2-((4-(4-methylpiperazin-1-yl)phenyl)amino)-8,9-dihydroimidazo[1,2-a]pyrimido[5,4-e]pyrimidin-5(6H)-one] | 17 | > 100000 | > 10000 |  |  | 
Cc1cccc(Cl)c1N1C(=O)c2cnc(Nc3ccc(N4CCN(C)CC4)cc3)nc2N2CCN=C21 [Example 5, 6-(2-Chloro-6-methylphenyl)-2-((4-(4-methylpiperazin-1-yl)phenyl)amino)-8,9-dihydroimidazo[1,2-a]pyrimido[5,4-e]pyrimidin-5(6H)-one] | 88 | 431 | 941 |  |  | 
CN(C)CCCNc1ccc(Nc2ncc3c(n2)N2CCN=C2N(c2c(F)cccc2Cl)C3=O)cc1 [Example 110, 6-(2-Chloro-6-fluorophenyl)-2-((4-((3-(dimethylamino)propyl)amino)phenyl)amino)-8,9-dihydroimidazo[1,2-a]pyrimido[5,4-e]pyrimidin-5(6H)-one] | 96 | 472 | 599 |  |  | 

Now from value to compound:

Inh. (%) of Wee1 kinase enzyme activity ([1]; C 1 μm compound) [%] | IC50 [2] [nM] | IC50 ([3]; NCI-H1299 cells) [nM] | Inh. (%) of Wee1 kinase enzyme activity ([1]; C 0.01 μm compound) [%] | Inh. (%) of Wee1 kinase enzyme activity ([1]; C 0.1 μm compound) [%] | IC50 ([3]; NCI-H1299, NCI-H1299 cells) [nM] | SMILES
97 | 93.3 | 217 | 27 | 72 |  | CN1CCN(c2ccc(Nc3ncc4c(n3)N3CCN=C3N(c3c(Cl)cccc3Br)C4=O)cc2Cl)CC1 [Example 161, 6-(2-Bromo-6-chlorophenyl)-2-((3-chloro-4-(4-methylpiperazin-1-yl)phenyl)amino)-8,9-dihydroimidazo[1,2-a]pyrimido[5,4-e]pyrimidin-5(6H)-one]
98 | 58.2 |  | 32 | 82 | 92.9 | CN(C)C1CCN(c2ccc(Nc3ncc4c(n3)N3CCN=C3N(c3c(Cl)cccc3Cl)C4=O)cc2Br)CC1 [Example 140, 6-(2,6-Dichlorophenyl)-2-((3-bromo-4-(4-(dimethylamino)piperidin-1-yl)phenyl)amino)-8,9-dihydroimidazo[1,2-a]pyrimido[5,4-e]pyrimidin-5(6H)-one]
89 | 68.8 |  | 8 | 61 | 306 | Cc1cc(Nc2ncc3c(n2)N2CCN=C2N(c2c(F)cccc2Cl)C3=O)cc(C(F)(F)F)c1N1CCN(C)CC1 [Example 128, 6-(2-Chloro-6-fluorophenyl)-2-((3-methyl-4-(4-methylpiperazin-1-yl)-5-(trifluoromethyl)phenyl)amino)-8,9-dihydroimidazo[1,2-a]pyrimido[5,4-e]pyrimidin-5(6H)-one]
96 | 91.1 |  | 42 | 86 | 209 | CN1CCN(c2c(F)cc(Nc3ncc4c(n3)N3CCN=C3N(c3c(Cl)cccc3Cl)C4=O)cc2Cl)CC1 [Example 147, 6-(2,6-Dichlorophenyl)-2-((3-chloro-5-fluoro-4-(4-methylpiperazin-1-yl)phenyl)amino)-8,9-dihydroimidazo[1,2-a]pyrimido[5,4-e]pyrimidin-5(6H)-one]
94 | 99.2 |  | 26 | 71 | 226 | Cc1cc(Nc2ncc3c(n2)N2CCN=C2N(c2c(C)cccc2Cl)C3=O)cc(Cl)c1N1CCN(C)CC1 [Example 173, 6-(2-Chloro-6-methylphenyl)-2-((3-chloro-5-methyl-4-(4-methylpiperazin-1-yl)phenyl)amino)-8,9-dihydroimidazo[1,2-a]pyrimido[5,4-e]pyrimidin-5(6H)-one]
93 | 116 |  | 20 | 81 | 347 | CN1CCN(c2c(Cl)cc(Nc3ncc4c(n3)N3CCN=C3N(c3c(Cl)cccc3Cl)C4=O)cc2Cl)CC1 [Example 150, 6-(2,6-Dichlorophenyl)-2-((3,5-dichloro-4-(4-methylpiperazin-1-yl)phenyl)amino)-8,9-dihydroimidazo[1,2-a]pyrimido[5,4-e]pyrimidin-5(6H)-one]
